Drawing on ChEMBL document CHEMBL1123474, “Neuroleptics from the 4a,9b-cis- and 4a,9b-trans-2,3,4,4a,5,9b-hexahydro-1H-pyrido[4,3-b]indole series. 2” (J Med Chem, 1986), this text covers ED50 for 21 compounds.

Experiment [1] relates to Rattus norvegicus. The experiment in a line: Inhibition of d-amphetamine induced stereotypy in rats; i.p. treatment 5 hr before amphetamine. In kind it is functional.
Experiment [2] relates to Rattus norvegicus. The experiment in a line: Inhibition of d-amphetamine induced stereotypy in rats; i.p. treatment 24 hr before amphetamine. Format: functional.
Experiment [3] deals with Rattus norvegicus. The experiment in a line: Inhibition of d-amphetamine induced stereotypy in rats; i.p. treatment 1 hr before amphetamine. Format: functional.
Experiment [4] is filed under the species Rattus norvegicus. Kind of experiment: animal or person. To be noted: ip.
Experiment [5] is filed under the species Rattus norvegicus. Kind of experiment: animal or person. The note with it: ip. This is another data set of the same source.
The species named for experiment [6] is Rattus norvegicus. The experiment in a line: animal or person. The note with it: ip. This is another data set of the same source.
Setting [7] is: Rattus norvegicus, ip, read-out: ED50.

Bounds are passed on as bounds.

The ED50 is the dose at which the effect has come halfway, by size or by number of responders. For the compound `OCCCCN1CC[C@@H]2[C@@H](C1)c1cc(F)ccc1N2c1ccc(F)cc1`, the ED50 in experiment [1] (setting [7]) is 0.009 mg/kg; in experiment [2] (setting [7]), around 1 mg/kg; in experiment [3] (setting [7]), 0.03 mg/kg.

For the compound `OC(CCCN1CC[C@H]2[C@@H](C1)c1ccccc1N2c1ccccc1)c1ccc(F)cc1` (some centres not stated), the ED50 in experiment [1] (setting [7]) and in experiment [3] (setting [7]) was above 32 mg/kg in each case.

Turning to `OC(CCCN1CC[C@@H]2[C@@H](C1)c1cc(F)ccc1N2c1ccc(F)cc1)c1ccc(F)cc1` (some centres not stated), the ED50 in experiment [1] (setting [7]) is 0.03 mg/kg; in experiment [2] (setting [7]) it was 0.03 mg/kg; in experiment [3] (setting [7]), 0.41 mg/kg.

As to `Fc1ccc(N2c3ccc(F)cc3[C@@H]3CNCC[C@H]32)cc1`, the median effective dose (ED50) in experiment [1] (setting [7]) and in experiment [3] (setting [7]) was above 3.2 mg/kg in each case.

Consider `CN1CC[C@@H]2Nc3ccccc3[C@@H]2C1` [CARBIDINE], for which the ED50 in experiment [1] (setting [7]) and in experiment [3] (setting [7]) was above 32 mg/kg in each case.

For `OC(CCCN1CCc2c(c3cc(F)ccc3n2-c2ccc(F)cc2)C1)c1ccc(F)cc1` (configuration not stated) [FLUTROLINE], the figures for the median effective dose (ED50) in experiment [1] (setting [7]), in experiment [2] (setting [7]) and in experiment [3] (setting [7]) were 0.1 mg/kg, 0.32 mg/kg and 0.1 mg/kg, respectively.

For the compound `CN1CC[C@H]2[C@@H](C1)c1ccccc1N2c1ccccc1`, the ED50 in experiment [1] (setting [7]) and in experiment [3] (setting [7]) was above 32 mg/kg in each case.

For `OC(CCCN1CC[C@@H]2[C@@H](C1)c1cc(F)ccc1N2c1ccccc1)c1ccc(F)cc1` (stereo in doubt; 25), the ED50 in experiment [1] is around 0.032 mg/kg; in experiment [2], 0.032 mg/kg; in experiment [3], 0.1 mg/kg.

Take `O=C(CCCN1CC[C@@H]2[C@@H](C1)c1cc(F)ccc1N2c1ccc(F)cc1)c1ccc(F)cc1`: the ED50 is 0.1 mg/kg in experiment [1] (setting [7]), 0.03 mg/kg in experiment [2] (setting [7]) and above 1 mg/kg in experiment [3] (setting [7]).

Consider `OC(CCCN1CC[C@@H]2[C@@H](C1)c1cc(F)ccc1N2c1ccc(F)cc1)c1ccccc1` (some centres not stated), for which the ED50 in experiment [1] (ip), in experiment [2] (setting [7]) and in experiment [3] (setting [7]) was 0.18 mg/kg in each case.

Take `c1ccc(CN2CC[C@H]3[C@@H](C2)c2ccccc2N3c2ccccc2)cc1`: the 50% effective dose (ED50) in experiment [1] (setting [7]) and in experiment [3] (setting [7]) was above 32 mg/kg in each case.

Take `COc1ccc(C(O)CCCN2CC[C@@H]3[C@@H](C2)c2cc(F)ccc2N3c2ccc(F)cc2)cc1` (some centres not stated): the ED50 in experiment [1] (setting [7]) turned out to be 0.01 mg/kg; in experiment [2] (setting [7]) it was 0.1 mg/kg; in experiment [3] (setting [7]), 0.36 mg/kg.

`CCN1CC[C@@H]2[C@@H](C1)c1cc(F)ccc1N2c1ccc(F)cc1`: the median effective dose (ED50) in experiment [1] (setting [7]) is 0.18 mg/kg; in experiment [2] (setting [7]) it was above 10 mg/kg; in experiment [3] (setting [7]), 0.14 mg/kg.

As for `OC(CCCN1CC[C@@H]2[C@@H](C1)c1ccccc1N2c1ccc(F)cc1)c1ccc(F)cc1` (some centres not stated), the ED50 in experiment [1] (setting [7]) was 0.032 mg/kg; in experiment [2] (setting [7]), 0.032 mg/kg; in experiment [3] (setting [7]) it was around 0.32 mg/kg.

For the compound `CN1CC[C@@H]2[C@@H](C1)c1cc(F)ccc1N2c1ccc(F)cc1`, the ED50 in experiment [1] (setting [7]) was 0.23 mg/kg; in experiment [2] (setting [7]), above 3.2 mg/kg; in experiment [3] (setting [7]), 0.14 mg/kg.

For the compound `Fc1ccc(/C=C/CCN2CC[C@@H]3[C@@H](C2)c2cc(F)ccc2N3c2ccc(F)cc2)cc1`, the ED50 in experiment [1] (setting [7]) is 0.57 mg/kg; in experiment [2] (setting [7]), 0.57 mg/kg; in experiment [3] (setting [7]) it was above 1 mg/kg.

For `COc1ccc(/C=C/CCN2CC[C@@H]3[C@@H](C2)c2cc(F)ccc2N3c2ccc(F)cc2)cc1`, the 50% effective dose (ED50) in experiment [1] (setting [7]) is around 0.32 mg/kg; in experiment [2] (setting [7]), around 0.32 mg/kg; in experiment [3] (setting [7]), above 3.2 mg/kg.

In the case of `OC(CCCN1CC[C@H]2[C@@H](C1)c1cc(F)ccc1N2c1ccc(F)cc1)c1ccc(F)cc1` (some centres not stated), the ED50 in experiment [1] (setting [7]) stood at 1.1 mg/kg; in experiment [2] (setting [7]), 9.1 mg/kg; in experiment [3] (setting [7]), 22 mg/kg.

`OC(CCCN1CC[C@@H]2[C@@H](C1)c1cc(F)ccc1N2c1ccccc1)c1ccc(F)cc1` (stereo in doubt; 24): the ED50 is 0.08 mg/kg in experiment [1], 0.11 mg/kg in experiment [2] and 0.23 mg/kg in experiment [3].

In the case of `O=C(CCCN1CCC(O)(c2ccc(Cl)cc2)CC1)c1ccc(F)cc1` [HALOPERIDOL], the ED50 in experiment [4] was 0.1 mg/kg; in experiment [5], 0.1 mg/kg; in experiment [6], above 3.2 mg/kg.

On to `c1ccc(N2c3ccccc3[C@@H]3CNCC[C@@H]32)cc1`, for which the median effective dose (ED50) in experiment [1] (setting [7]) and in experiment [3] (setting [7]) was above 32 mg/kg throughout.
